Broadly, the IC90 is the concentration needed for an effect of 90%. Low values mean an effect from little substance, high ones a need for much substance. One may read the IC50 as the concentration that gives 50% inhibition.

Entries after “also recorded” stand apart in the source; their conditions may differ.

The values below come from PMC7667029, “A Targeted Computational Screen of the SWEETLEAD Database Reveals FDA-Approved Compounds with Anti-Dengue Viral Activity” (mBio, 2020).

In data set [1] the test system is dengue virus. Put plainly: Initial screening of hit compounds for anti-dengue activity in tissue culture cells (Table S1). Format: cell-based. The note with it: viral titer relative to vehicle, tissue culture cell lines (BHK-21 48 hpi, Fig. S1; Huh7, Fig. 2C, 3C, 4C). How it is done:
For each query molecule, the top 500 compound hits obtained from the ROCS algorithm, as ranked by the Tanimoto combo score (see Data Set S1 in the supplemental material), were manually inspected for similar chemical and structural features. They were further prioritized by factors such as a lack of known side effects, commercial availability, and the intellectual property considerations that would be needed for worldwide, inexpensive use. Fourteen candidates were tested for their effects on dengue virus growth and toxicity in BHK-21 and Huh7 cells (see Table S1 and Fig. S1 in the supplemental material).
(§1) Supplementary file : TABLE S1 Summary of hits for lead compounds ARDP0006 and ST-148 screened for anti-dengue activity in tissue culture cells. Hit compounds were tested for anti-dengue activity and cell toxicity in tissue culture cell lines. Antiviral activity is summarized as follows: −, not antiviral, with titer greater than 50% of vehicle; +, weakly antiviral, with titer between 20 and 50% of vehicle; ++, moderately antiviral, with titer between 5 and 20% of vehicle; +++, highly antiviral, with titer less than 5% of vehicle. Toxicity at these doses is represented as follows: −, nontoxic, with cell viability greater than 80% of vehicle; +, mild toxicity, with cell viability between 60 and 80% of vehicle; +++, high toxicity, with cell viability less than 60% of vehicle. Data summarized here are depicted graphically in Fig. S1 and Fig. 2C, 3C, and [4]C. The Tanimoto combo score of each hit during initial ROCS screening is indicated; higher Tanimoto combo scores are indicative of increased chemical similarity. Download Table S1, PDF file, 0.04 MB.
Supplementary file : FIG S1 Initial screening of eliminated hit compounds for anti-dengue activity in tissue culture cells. BHK-21 cells were pretreated with the compounds at the indicated concentrations for 30 min, infected with dengue virus at an MOI of 0.1 PFU/cell for 1 h, and then posttreated with compound. At 48 hpi, cellular supernatant was collected and titered by plaque assay (purple). Cell viability in uninfected cells in the presence of compounds for 48 h was measured by WST assay (gray). Both viral titer and cell viability are normalized to their relative DMSO vehicle control, N = 2. Download FIG S1, PDF file, 0.06 MB.

The next data set relates to dengue viral RNA. Put plainly: Intracellular viral RNA quantification by qRT-PCR in infected Huh7 cells. It is filed as cell-based, dengue virus. How it is done:
(§2) (A) Chemical structures and (B) ROCS overlay of ST-148 and niclosamide. […] Compound addition, viral growth, and cytotoxicity assays were performed as described in the legend to Fig. 2C. (D) Virucidal activity of compounds at the concentrations indicated was measured after 60-min incubation of drugs with virus-containing solutions at 37°C. Viral titer was quantified by plaque assay on BHK-21 cells. n = 3. Statistical significance was evaluated by one-way ANOVA with Sidak’s multiple-comparison test and indicated as follows: *, P < 0.05; **, P < 0.01; ****, P < 0.0001; ns, not significant. […] On the left, cells were pretreated for 2 h prior to infection, compounds were removed during a 1-h infection at an MOI of 0.5 PFU/cell and then readministered after removal of viral inoculum. On the right, cells were similarly infected and compounds were first introduced 4 h after starting the infection. […] (F) To test the effect of ST-148 and niclosamide on viral RNA replication, Huh7 cells were infected for 1 h at an MOI of 0.5 PFU/cell. […] Intracellular RNA was collected at the time points indicated and quantified by qRT-PCR. […] N = 4, two-way ANOVA with Dunnett’s multiple-comparison test. […] After 4 h of infection, 10 μM ST-148 or 1 μM niclosamide was added; extracellular virus was collected at 24 hpi and quantified by plaque assay.
Background: In qPCR the cycle at which signal appears reflects the starting amount.

Another data set relates to DENV2. Put plainly: Antiviral activity in DENV2-infected Huh7 cells, infectious virus in supernatant by plaque assay. It is filed as cell-based, dengue virus. How it is done:
FIG 2 Pyrimethamine inhibits dengue virus and NS2B/3 proteinase cleavage like ARDP0006. (A) Chemical structures and (B) ROCS overlay of ARDP0006 and pyrimethamine. […] Infectious virus in cell supernatant was quantified by plaque assay at 24 hpi (left y axis, black or red). Cell viability was measured at the same pyrimethamine doses 24 h posttreatment by WST-1 assay (right y axis, gray). Viral titer and cell viability were normalized to DMSO-treated samples. (D) Splenic titers of DENV2-infected AGB6 mice at 4 days postinfection. Mice were infected with 1 × 10^6 PFU DENV2 and treated twice daily with 20 mg/kg pyrimethamine (n = 9) or a vehicle control (n = 10). Data were analyzed by two-tailed unpaired t test. (E) Cleavage kinetics of NS2B/3/4A in the presence of 100 μM pyrimethamine. NS2B/3/4A protein was expressed in vitro and radiolabeled with [^35S]methionine, followed by treatment with 100 μM pyrimethamine or DMSO. Reaction samples were obtained over a 45-min time course, separated by SDS-PAGE, and the fraction of uncleaved proteinase precursor remaining was determined as described previously ([23]). Data from three replicates were fit using single-phase exponential decay functions, and P value was determined by comparing the rate constant, K, of the models using the extra sum-of-squares F test.
Dengue plaque assays were carried out on BHK-21 cells in 24-well plates. Cells were infected with 10-fold serial dilutions of virus, which were allowed to adsorb for at least 1 h at 37°C, and overlaid with standard cell culture medium plus 0.37% (w/vol) sodium bicarbonate and 0.8% (w/vol) Aquacide II (Millipore Calbiochem). After 7 days of incubation at 37°C, 5% CO2, cells were fixed with 5% (final) formaldehyde and stained with crystal violet for plaque enumeration.
Between 4 × 10^4 and 1 × 10^5 Huh7 cells per well were seeded into 24-well plates 1 day prior to infection. Compounds were diluted to 100× final concentration in DMSO and then further diluted 1:100 into appropriate cell culture. Unless otherwise indicated, tested compounds were present for 1 h pretreatment and readministered for posttreatment following infection. […] Media and drugs were removed from cells for infection at a multiplicity of infection (MOI) of 0.1 or 0.5 in 200 μl cold medium per well. After 1 h at 37°C, virus inoculum was removed by aspiration and replaced with medium plus compound or control. After 24-h total infection, infectious virus was quantified by plaque assay. Antiviral IC50 dose-response curves were fitted in GraphPad Prism 8 using the “[inhibitor] versus response, variable slope” function with a constraint “bottom > 0.” IC90 values are defined as the dose at which “y = (span × 0.1) + bottom.”

The subject of data set [2] is dengue virus. Put plainly: Virucidal activity assay, 60-min incubation of drug with virus, plaque assay on BHK-21 cells. The note with it: 0.1 μM ST-148, 1 h at 37°C. Format: cell-based. How it is done: as §2
Compounds were diluted to 100× in DMSO, then further diluted 1:100 into phosphate-buffered saline (PBS) containing dengue virus to a final volume of 200 μl and mixed. Aliquots were taken for plaque assays immediately after addition of compounds (time [T] = 0 min) or after incubation at 37°C for 60 min (T = 60 min).

The next data set has as its system BHK-21 and Huh7 cells. Put plainly: Cell viability by WST assay in uninfected cells (Table S1). It is filed as cell-based. Conditions: cell viability relative to vehicle at these doses. How it is done:
as §1, with “The Tanimoto combo score of each hit during initial ROCS screening is indicated; higher Tanimoto combo scores are indicative of increased chemical similarity. Download Table S1, PDF file, 0.04 MB.” left out
Supplementary file : FIG S1 Initial screening of eliminated hit compounds for anti-dengue activity in tissue culture cells. […] Cell viability in uninfected cells in the presence of compounds for 48 h was measured by WST assay (gray). […]
Mock-infected wells were used to determine cell viability in the presence of chemical compounds compared to 1% DMSO vehicle control. Cell viability was determined using the WST-1 kit (Abcam) per the manufacturer’s instructions. […]

`COc1cc2nc(N3CCN(C(=O)C4COc5ccccc5O4)CC3)nc(N)c2cc1OC` (stereo not shown) [Doxazosin]: in the data set with dengue virus [1], the Antiviral result is “+ (weakly antiviral, with titer between 20 and 50% of vehicle)”. For `CC1=NN(c2ccc(C)c(C)c2)C(=O)/C1=N\Nc1cccc(-c2cccc(C(=O)O)c2)c1O` [Eltrombopag], the Antiviral result with dengue virus [1] is reported as “− (not antiviral, with titer greater than 50% of vehicle)”. With `Nc1c2c(nc3ccccc13)CCCC2O` (stereo not shown) [Hydroxy tacrine], the Antiviral entry in the data set on dengue virus [1] is recorded as “− (not antiviral, with titer greater than 50% of vehicle)”.

For `C[C@@]1(O)[C@H](O)[C@@H](CO)O[C@H]1n1ccc2c(N)ncnc21` [MK0608], the “Viral RNA abundance” value with dengue viral RNA (50 μM MK0608, control for inhibited vRNA replication) is “significantly reduced vRNA load; also recorded: strongly reduced viral RNA abundance”. In the case of `Cc1cnc(NC(=O)C2=C(O)c3ccccc3S(=O)(=O)N2C)s1` [Meloxicam], the Antiviral result in the data set with dengue virus [1] is listed as “− (not antiviral, with titer greater than 50% of vehicle)”. Same read-out and setting: to `COc1c2occc2cc2ccc(=O)oc12` [Methoxsalen] belongs “− (not antiviral, with titer greater than 50% of vehicle)”. Still for that read-out and setting: in the case of `Cc1c(NC(=O)c2cccnc2)c(=O)n(-c2ccccc2)n1C` [Nifenazone] it was “+ (weakly antiviral, with titer between 20 and 50% of vehicle)”.

Regarding `COc1ccc2[nH]c([S+]([O-])Cc3ncc(C)c(OC)c3C)nc2c1` (stereo not shown) [Omeprazole], the Antiviral entry with dengue virus [1] is “− (not antiviral, with titer greater than 50% of vehicle)”. The same measure, in the same setting: to `Cc1nccn1CC1CCc2c(c3ccccc3n2C)C1=O` (stereo not shown) [Ondansetron] belongs “++ (moderately antiviral, with titer between 5 and 20% of vehicle)”. Still for that read-out and setting: to `Cc1cccn2c(=O)c(-c3nnn[nH]3)cnc12` [Pemirolast] belongs “− (not antiviral, with titer greater than 50% of vehicle)”. Consider `Nc1c(C(=O)Nc2nnc(-c3ccccc3)s2)sc2nc3c(cc12)CCCCC3` [ST-148], for which the “Virion production at increased dose after entry” value in the data set on DENV2 (10 μM ST-148 or 1 μM niclosamide added after 4 h of infection, extracellular virus at 24 hpi) is “effective during later, postentry stages; also recorded: inhibited virion production”. This compound also displayed a 90% effect concentration (IC90) in the data set with DENV2 (Dengue virus, Huh-7, DENV2-infected Huh7 cells, from dose-response curve fit, 24 hpi) of 5.6 µM. Besides, in the data set with DENV2 (Dengue virus, Huh-7, DENV2-infected Huh7 cells, single infectious cycle, plaque assay at 24 hpi, read-out: IC50 of viral inhibition (infectious extracellular virus)), the IC50 is 0.38 µM. The “Viral titer on delayed addition of compound” value with DENV2 (IC90 dose first added 4 h after infection, Huh7, 24 hpi) is “eliminated the observed reduction of viral titer”. Moreover, the “Virucidal activity (viral infectivity after coincubation)” value in the data set on dengue virus [2] was “significantly reduced viral infectivity”. Further, the “Viral RNA abundance” value with dengue viral RNA (added 4 h postinfection at IC90 dose (5.6 μM ST-148, 0.66 μM niclosamide)) is recorded as “no difference in viral RNA abundance”. Turning to `Cc1noc(NS(=O)(=O)c2ccc(N)cc2)c1C` [Sulfisoxazole], the Antiviral result in the data set on dengue virus [1] was “+ (weakly antiviral, with titer between 20 and 50% of vehicle)”. For `Nc1nc(N)c2nc(-c3ccccc3)c(N)nc2n1` [Triamterine], the Toxicity entry with BHK-21 and Huh7 cells is on record as “+++ (high toxicity, with cell viability less than 60% of vehicle)”. Also, the Antiviral entry in the data set on dengue virus [1] was “+++ (highly antiviral, with titer less than 5% of vehicle)”.
